“Also recorded” adds a separate entry of the source. Like-named read-outs stand apart in the source and are kept apart here.
How the values were obtained:
[1] = Remote loading of GSK3 inhibitors into silicasomes: encapsulation efficiency and loading capacity; type: physicochemical; conditions: for encapsulation efficiency in silicasomes (in words): remote loading at 5, 10 or 20 feed weight %
Method: The overall scheme for the synthesis of silicasome carriers to deliver GSK3 inhibitors is outlined in FIG. 3. Briefly, a large batch (i.e. 120 g) synthesis of bare particles was carried out as previously, yielding ˜70 nm MSNPs (FIG. 3, panel A) (22). […] 20 mg soaked-in MSNPs were then used together with an ethanol suspended lipid solution, comprised of a mixture of 60 mg DSPC:Cholesterol:PE-PEG2000 (molar ratio of 6:4:0.3), for coating with a lipid bilayer by a flow through sonication procedure (FIG. 3, panel B). Following the removal of the non-encapsulated trapping agent, AZD2858, AZD1080, LY2090314, and 1-Azakenpaullone were dissolved in 0.9% saline and incubated with the silicasome carrier to assess the loading capacity in response to different feed weight percentages (FIG. 11).
Four GSK3 inhibitor-laden silicasome formulations were analyzed to assess encapsulation efficiency and loading capacity. 100 μL of the silicasomes suspension at 10 mg/mL in 0.9% NaCl (1 mg silicasomes) was added to AZD1080, AZD2858, LY2090314, and 1-azakenpaullone solutions, which were prepared by adding 50, 100 or 200 μg of each inhibitor to 900 μL water. These drug mass quantities provided feed weight percentages of 5, 10, and 20%, in comparison to the silicasome mass. Following execution of the remote loading procedure as detailed above, the crude solutions were used to assess absorbance in a glass bottom 96-well plate (Total Drug Absorbance). Silicasomes were centrifuged at 21,000×g for 15 minutes to pellet the particles. After removal of the supernatant, the silicasomes were re-suspended in aa fresh 0.9% NaCl solution. This was repeated three times to remove any unloaded inhibitor. The silicasome solution was then sampled and absorbance was measured to determine Loaded Drug Absorbance. Concentration-matched unloaded ‘blank’ silicasomes also had absorbance measured (Silicasome Blank Absorbance). Encapsulation efficiency was calculated by the following formula: […]
All measurements were taken using a SpectraMax M5 plate reader (Molecular Devices). All solutions were diluted 1/10 in 0.9% NaCl solution prior to absorbance reads. The absorbances used for each compound were: 418 nm for AZD1080, 383 nm for AZD2858, 213 nm for LY2090314, and 334 nm for 1-azakenpaullone.

GSK3 = conditions: cited from earlier work
[2] = Phase 2 candidate, trial abandoned; literature (54); cited from earlier work
Pdcd1 expression = test: RT-qPCR of Pdcd1 in anti-CD3 activated primary murine T-cells; type: cell-based, C57BL/6 mouse; conditions: 10 μM, 72 hours, normalized against Gapdh
Method: (§1) This is compatible with the translational expression of T-bet, a transcription factor that interferes in PD-1 expression (FIG. 1, panel B).
(§2) Wells of a 96-well tissue culture plate were coated with anti-mouse CD3 antibody (Ultra-LEAF, Biolegend). 7.5 μL of 1 mg/mL antibody solution was diluted in 1 mL of 1×PBS, before 50 μL of the dilution was added to each plate well for 2 hours at 37° C. The wells were then thoroughly washed 3× with 1×PBS.
(§3) T-cells were extracted from C57BL/6 mouse spleens, using a standard procedure with minor modifications (71). Two mouse spleens were mechanically disrupted and the released cells were passed through a 70 μm filter. Red blood cells were lysed using RBC lysis buffer (eBioscience) at 4° C. for 5 minutes. 10 mL of 1×PBS was added to stop the lysis process, following which cells were pelleted at 300×g for 5 minutes. […]
(§4) Cells were collected and RNA was extracted using Direct-zol RNA MiniPrep Plus kits (Zymo), as per the manufacturer's instructions. Extracted RNA was converted into cDNA using SuperScript III First-Strand Synthesis System kits (Invitrogen). cDNA from treated T-cells was analyzed by RT-PCR using a LightCycler 480 instrument (Roche) and the LightCycler 480 SYBR Green I Master kit (Roche), per manufacturer's instructions. cDNA was analyzed using forward and reverse primers for Pdcd1, Tbx21, and Gapdh as a control, as described previously (10, 14). […]

MC38 colon cancer = test: MC38 syngeneic colon cancer model, subcutaneous tumor growth; type: in vivo, C57BL/6 mice; conditions: MC38; three administrations; n=15 per group
Method: Treatment was repeated every three days for a total of three administrations. Mice were sacrificed four days after the final treatment. The study was executed as two separate experiments, using animal group sizes of n=6 and n=9, respectively. […] The first set of analyses was performed on the tumor volume growth curves (FIG. 5, panel A), impact on final tumor volumes (FIG. 5, panel B) and tumor weight (FIG. 5, panel C) at the time of sacrifice.
MC38 cells, stably transfected with a luciferase vector, were inoculated into the right flank of C57BL/6 mice, using 0.7×10^6 cells in 40% Matrigel 1×PBS solution. Tumors were allowed to grow to a size of ˜50 mm^3 prior to the initiation of treatment, approximately 14 days after initial inoculation. Mice with outlier tumor sizes (either too small or too large) were excluded from further study. The remaining animals were randomly assigned to the different treatment groups. Mice were treated with three injections, set three days apart, and were sacrificed 4 days after the final treatment administration. […] Two separate experiments were performed, the first with n=6 mice per group and the second with n=9 animals.

Tbx21 expression = test: RT-qPCR of Tbx21 in anti-CD3 activated primary murine T-cells; type: cell-based, C57BL/6 mouse; conditions: 10 μM, 72 hours, normalized against Gapdh
Method: as §1, §2, §3, §4

T-bet = conditions: T-cells; literature (10, 13, 14); cited from earlier work
[3] = test system: CD8+ T-cells in MC38 tumors; test: Flow cytometry of tumor-infiltrating CD8+ T-cells in MC38 tumors; type: in vivo, C57BL/6 mice
From the text: In order to address the change in the immunological landscape with treatment, we asked whether sAZD1080 could impact the immune parameters that underpin treatment efficacy for immune checkpoint blocking antibodies. These include the CD8^+ cell number, the abundance of PD-1 expression on these cells, perforin release and the generation of cancer cell death, as reflected by activated caspase 3. For the first analysis, tumor cell digests were used to assess the number of CD8^+/CD107a^+/granzyme B^+ lymphocytes by flow cytometry (14, 30). […] In order to assess the status of PD-1 expression on CD8+ cells, flow cytometry was used to assess the % of […] cells in the tumor digests (14, 31).
Tumors were harvested from MC38 mice after sacrifice. Tumors larger than 100 mm^3 were divided in two, with one half preserved for histology and the other half used to conduct flow cytometry. To prepare samples for flow cytometry, tumor chunks of 2-3 mm^3 were incubated in an enzyme cocktail (1 mg/mL collagenase type IV, 2000 U DNase type IV, 0.1 mg/mL hyaluronidase type V in 1×HBSS) for 1 hour, and the digests passed through a 70 μm nylon filter. Cells were pelleted and washed in HBSS.
Cells were diluted in cell staining buffer, pelleted by centrifuging at 350×g for 5 minutes, and washed twice. […]

[4] = values provided by chemical vendors (Cayman Chemical, Selleck Chemicals)

## O=C1Cc2c([nH]c3ccc(Br)cc23)-c2ncccc2N1 [1-Azakenpaullone]
[1]
  encapsulation efficiency in silicasomes (in words): comparatively low

## O=c1cc(-c2ccc(O)c(O)c2O)oc2ccccc12 [2-D08]
GSK3; [4]
  IC50: 0.011 µM

## CN1CCN(S(=O)(=O)c2ccc(-c3cnc(N)c(C(=O)Nc4cccnc4)n3)cc2)CC1 [AZD2858]
[1]; dissolved in 0.9% saline, incubated with silicasome carrier, feed weight %
  solubility during remote loading (in words): precipitated; also recorded: poor solubility
[1]
  encapsulation efficiency in silicasomes (in words): moderate efficiency

## Cc1[nH]c2ccccc2c1C1=C(NCCc2ccc(F)cc2)C(=O)N(C)C1=O [IM-12]
GSK3; [4]
  IC50: 0.053 µM

## O=C1NC(=O)C(c2cnc3ccccn23)=C1c1cn2c3c(cc(F)cc13)CN(C(=O)N1CCCCC1)CC2 [LY2090314]
[1]
  encapsulation efficiency in silicasomes (in words): moderate efficiency
[2]
  PK and bioavailability in clinical trial: poor PK and drug bioavailability
GSK3; [4]
  IC50: 0.0009 µM

## O=C1NC(=O)C(c2ccccc2[N+](=O)[O-])=C1Nc1ccc(O)c(Cl)c1 [SB415286]
Pdcd1 expression
  reduction in Pdcd1 mRNA expression: ~2.2 fold
MC38 colon cancer
  number of tumor-free animals at time of sacrifice (out of 15): 1/15
Tbx21 expression
  Tbx21 mRNA expression: increased
T-bet
  expression of T-bet: increase
[3]
  % of CD8/PD-1+ cells in the tumor digests: did not impact

## Nc1cccc(-c2cc3c(Oc4cccc(O)c4)ncnc3[nH]2)c1 [TWS119]
GSK3; [4]
  IC50: 0.04 µM

## BIO-acetoxime
GSK3; [4]
  IC50: 0.01 µM

## CHIR98014
GSK3
  IC50: 0.00058 µM

## Indirubin-3′-monoxime
GSK3; [4]
  IC50: 0.022 µM

— patent US20230241000A1, “GSK3 INHIBITOR-LOADED NANO FORMULATIONS AS A CANCER IMMUNOTHERAPEUTIC” (The Regents of the University of California, priority 2020, published 2023)
